This is an account of results in ChEMBL document CHEMBL1909046, “DrugMatrix in vitro pharmacology data”.

Molecules are shown by their SMILES. pIC50, pKi: −log10 of the molar value.

The target of assay [1] is Receptor tyrosine-protein kinase erbB-2 (Homo sapiens, UniProt P04626). Kind of assay: biochemical. Format: cell-based, Insect cells. The note with it: insect cells.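 Further: inhibition of HER2 kinase enzyme activity, measured with Poly(Glu:Tyr) as the phosphorylation substrate; in other assays of this panel Not Active means under 50% inhibition at 10 µM.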
Sequence of Receptor tyrosine-protein kinase erbB-2 (P04626 whole entry): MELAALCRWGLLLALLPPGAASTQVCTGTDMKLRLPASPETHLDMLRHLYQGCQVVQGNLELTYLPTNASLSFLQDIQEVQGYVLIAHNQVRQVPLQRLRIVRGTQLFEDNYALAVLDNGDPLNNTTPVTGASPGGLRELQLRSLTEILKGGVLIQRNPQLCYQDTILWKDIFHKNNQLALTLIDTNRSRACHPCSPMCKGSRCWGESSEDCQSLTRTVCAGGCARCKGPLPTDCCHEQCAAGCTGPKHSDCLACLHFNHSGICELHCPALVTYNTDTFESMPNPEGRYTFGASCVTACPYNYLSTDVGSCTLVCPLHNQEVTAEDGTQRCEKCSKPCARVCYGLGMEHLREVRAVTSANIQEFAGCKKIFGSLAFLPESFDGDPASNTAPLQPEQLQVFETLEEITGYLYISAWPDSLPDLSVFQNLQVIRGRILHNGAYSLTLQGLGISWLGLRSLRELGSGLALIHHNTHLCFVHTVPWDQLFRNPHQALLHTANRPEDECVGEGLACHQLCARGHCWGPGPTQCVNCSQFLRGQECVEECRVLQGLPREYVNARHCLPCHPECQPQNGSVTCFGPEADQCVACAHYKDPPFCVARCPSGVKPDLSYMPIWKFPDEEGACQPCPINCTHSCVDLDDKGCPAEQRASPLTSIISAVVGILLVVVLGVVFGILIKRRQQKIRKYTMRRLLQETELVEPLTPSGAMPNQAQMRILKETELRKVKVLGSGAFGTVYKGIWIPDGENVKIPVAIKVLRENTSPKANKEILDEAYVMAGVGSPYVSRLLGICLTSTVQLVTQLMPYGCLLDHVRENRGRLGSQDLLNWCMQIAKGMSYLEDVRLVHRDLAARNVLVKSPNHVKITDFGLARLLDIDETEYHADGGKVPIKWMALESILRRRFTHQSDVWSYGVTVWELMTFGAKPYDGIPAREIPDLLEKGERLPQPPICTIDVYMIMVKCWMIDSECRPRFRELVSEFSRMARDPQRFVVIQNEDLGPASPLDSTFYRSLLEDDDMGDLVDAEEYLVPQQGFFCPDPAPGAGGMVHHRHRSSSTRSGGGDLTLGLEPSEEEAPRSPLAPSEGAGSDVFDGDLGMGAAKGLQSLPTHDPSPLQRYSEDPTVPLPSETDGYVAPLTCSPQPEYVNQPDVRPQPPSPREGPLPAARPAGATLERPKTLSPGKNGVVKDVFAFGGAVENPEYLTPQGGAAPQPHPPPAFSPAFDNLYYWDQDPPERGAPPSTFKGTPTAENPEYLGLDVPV
For another assay, the target named is Mu-type opioid receptor (Homo sapiens, UniProt P35372). Kind of assay: DRUGMATRIX: Opiate mu (OP3, MOP) radioligand binding (ligand: [3H] Diprenorphine). The format is cell membranes, CHO-K1, Membrane. The note with it: Not Active = under 50% inhibition at 10 µM; for IC50: cho-k1.
Sequence of Mu-type opioid receptor (P35372 whole entry): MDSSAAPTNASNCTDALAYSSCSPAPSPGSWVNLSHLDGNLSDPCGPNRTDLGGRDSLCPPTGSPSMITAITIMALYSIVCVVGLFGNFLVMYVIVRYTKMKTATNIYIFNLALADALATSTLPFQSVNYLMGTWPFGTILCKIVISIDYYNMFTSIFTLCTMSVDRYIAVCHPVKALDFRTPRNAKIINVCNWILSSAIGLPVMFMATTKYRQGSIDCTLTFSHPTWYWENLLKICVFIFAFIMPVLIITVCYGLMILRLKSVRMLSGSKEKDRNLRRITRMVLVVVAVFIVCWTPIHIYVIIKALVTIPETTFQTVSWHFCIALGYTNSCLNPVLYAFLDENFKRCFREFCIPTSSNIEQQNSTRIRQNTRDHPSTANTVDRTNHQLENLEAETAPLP
The target of the next assay is Acetylcholinesterase (Homo sapiens, UniProt P22303). Kind of assay: DRUGMATRIX: Acetylcholinesterase enzyme inhibition (substrate: acetylthiocholine). The format is cell-based, HEK293. The note with it: hek293; Not Active = under 50% inhibition at 10 µM.
Sequence of Acetylcholinesterase (P22303 whole entry): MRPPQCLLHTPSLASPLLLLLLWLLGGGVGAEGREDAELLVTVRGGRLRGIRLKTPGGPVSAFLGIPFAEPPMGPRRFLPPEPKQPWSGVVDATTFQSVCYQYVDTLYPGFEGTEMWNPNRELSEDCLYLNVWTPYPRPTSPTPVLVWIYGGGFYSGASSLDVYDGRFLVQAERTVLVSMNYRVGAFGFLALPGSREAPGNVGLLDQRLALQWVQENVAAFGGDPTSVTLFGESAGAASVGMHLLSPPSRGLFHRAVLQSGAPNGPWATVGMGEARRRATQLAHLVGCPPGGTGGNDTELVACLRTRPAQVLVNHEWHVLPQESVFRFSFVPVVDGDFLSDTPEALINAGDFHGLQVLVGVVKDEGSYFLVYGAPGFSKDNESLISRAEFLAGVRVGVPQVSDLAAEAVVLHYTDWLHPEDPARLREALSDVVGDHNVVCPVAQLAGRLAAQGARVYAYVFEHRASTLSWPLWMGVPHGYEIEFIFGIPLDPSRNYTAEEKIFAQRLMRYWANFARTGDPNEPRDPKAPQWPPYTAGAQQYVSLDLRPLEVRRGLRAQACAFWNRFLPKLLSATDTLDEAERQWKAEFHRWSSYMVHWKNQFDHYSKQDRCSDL
Assay [2] deals with T1, Neuropeptide Y receptor type 2 (Homo sapiens, UniProt P49146).
T1 sequence (P49146 whole entry): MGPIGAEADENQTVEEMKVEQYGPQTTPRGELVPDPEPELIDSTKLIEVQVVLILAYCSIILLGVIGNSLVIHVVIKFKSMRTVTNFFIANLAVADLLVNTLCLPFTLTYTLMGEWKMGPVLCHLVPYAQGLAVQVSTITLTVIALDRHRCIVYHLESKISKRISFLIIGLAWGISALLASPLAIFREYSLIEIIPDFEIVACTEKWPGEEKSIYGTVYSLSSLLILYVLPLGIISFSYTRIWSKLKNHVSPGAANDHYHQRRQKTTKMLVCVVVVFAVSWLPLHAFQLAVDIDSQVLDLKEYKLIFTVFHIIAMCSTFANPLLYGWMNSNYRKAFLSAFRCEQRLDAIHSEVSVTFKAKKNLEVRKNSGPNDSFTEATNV
The format is cell membranes, Membrane. The note with it: kan-ts.

The target in assay [3] is T2, C-X-C chemokine receptor type 1 (Homo sapiens, UniProt P25024). Further: in other assays of this panel Not Active means under 50% inhibition at 10 µM.
T2 sequence (P25024 whole entry): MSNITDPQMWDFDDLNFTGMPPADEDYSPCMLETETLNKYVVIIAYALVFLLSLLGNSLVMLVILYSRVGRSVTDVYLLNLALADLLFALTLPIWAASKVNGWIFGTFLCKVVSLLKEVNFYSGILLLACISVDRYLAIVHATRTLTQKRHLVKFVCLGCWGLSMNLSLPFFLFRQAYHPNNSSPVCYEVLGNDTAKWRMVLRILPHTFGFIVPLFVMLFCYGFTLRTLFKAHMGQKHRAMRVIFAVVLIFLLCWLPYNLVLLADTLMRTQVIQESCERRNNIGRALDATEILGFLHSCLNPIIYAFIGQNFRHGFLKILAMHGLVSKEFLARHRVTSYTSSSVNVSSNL

The target of assay [4] is 5-hydroxytryptamine receptor 4 (Cavia porcellus, UniProt O70528). Format: cell membranes, Dunkin-Hartley, Striatum, Membrane. The settings on record: for pIC50: read-out: IC50; for pKi: read-out: Ki. On all read-outs here: in other assays of this panel Not Active means under 50% inhibition at 10 µM.
Sequence of 5-hydroxytryptamine receptor 4 (O70528 whole entry): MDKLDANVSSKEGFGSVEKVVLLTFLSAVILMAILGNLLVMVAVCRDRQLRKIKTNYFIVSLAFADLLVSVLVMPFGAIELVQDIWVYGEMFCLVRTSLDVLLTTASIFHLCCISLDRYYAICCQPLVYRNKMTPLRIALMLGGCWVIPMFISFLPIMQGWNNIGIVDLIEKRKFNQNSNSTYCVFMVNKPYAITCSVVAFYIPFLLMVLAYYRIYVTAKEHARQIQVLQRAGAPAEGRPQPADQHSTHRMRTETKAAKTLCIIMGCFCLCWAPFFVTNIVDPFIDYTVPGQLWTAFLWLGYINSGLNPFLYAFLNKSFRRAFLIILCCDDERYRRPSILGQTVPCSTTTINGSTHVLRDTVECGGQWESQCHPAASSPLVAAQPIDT
The target of another assay is Substance-P receptor (Homo sapiens, UniProt P25103). Format: cell membranes, Membrane. The note with it: cho. Further: in other assays of this panel Not Active means under 50% inhibition at 10 µM.
Sequence of Substance-P receptor (P25103 whole entry): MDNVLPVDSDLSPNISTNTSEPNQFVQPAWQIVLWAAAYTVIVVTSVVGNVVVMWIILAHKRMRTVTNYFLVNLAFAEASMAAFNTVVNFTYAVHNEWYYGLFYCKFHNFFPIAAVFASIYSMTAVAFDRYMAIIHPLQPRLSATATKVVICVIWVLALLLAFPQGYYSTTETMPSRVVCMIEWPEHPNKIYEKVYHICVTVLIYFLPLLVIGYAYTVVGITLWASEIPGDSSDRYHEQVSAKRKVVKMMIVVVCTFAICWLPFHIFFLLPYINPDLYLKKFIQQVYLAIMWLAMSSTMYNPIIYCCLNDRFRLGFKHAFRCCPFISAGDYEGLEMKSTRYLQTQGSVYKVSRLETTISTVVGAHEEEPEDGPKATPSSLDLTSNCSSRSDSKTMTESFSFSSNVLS

Consider `CN1C[C@H](C(=O)N[C@]2(C)O[C@@]3(O)[C@@H]4CCCN4C(=O)[C@H](Cc4ccccc4)N3C2=O)C[C@@H]2c3cccc4[nH]cc(c34)C[C@H]21` [DIHYDROERGOTAMINE], for which the IC50 result (in assay [1]; on Mu-type opioid receptor; against Acetylcholinesterase; in assay [2]; in assay [3]; against Substance-P receptor) was “Not Active” each time. Besides, the negative-log IC50 (pIC50) in assay [4] was 6.03. Moreover, the negative logarithm of the Ki (pKi) in assay [4] was 6.80.
For the compound `Cc1c(N(C)CS(=O)(=O)[O-])c(=O)n(-c2ccccc2)n1C.[Na+]` [DIPYRONE SODIUM], the IC50 result (in assay [1]; at Mu-type opioid receptor; against Acetylcholinesterase; in assay [2]; in assay [3]; in assay [4]) was “Not Active” in each case. The IC50 entry at Substance-P receptor is given as “Not Active”.
For `CC(CCc1ccc(O)cc1)NCCc1ccc(O)c(O)c1` (configuration not stated) [DOBUTAMINE], the IC50 result (in assay [1]; at Mu-type opioid receptor; against Acetylcholinesterase; in assay [2]; in assay [3]; in assay [4]) was “Not Active” throughout. Further, the IC50 result on Substance-P receptor is “Not Active”.
Regarding `CCn1cc(C(=O)O)c(=O)c2cc(F)c(N3CCNCC3)nc21` [ENOXACIN], the IC50 result (in assay [1]; on Mu-type opioid receptor; against Acetylcholinesterase; in assay [2]; in assay [3]; in assay [4]) was “Not Active” each time. In addition, at Substance-P receptor, the IC50 entry is recorded as “Not Active”.
Turning to `CCC(=O)O[C@H]1[C@H](O[C@@H]2[C@@H](C)[C@H](O[C@H]3C[C@@](C)(OC)[C@@H](O)[C@H](C)O3)[C@@H](C)C(=O)O[C@H](CC)[C@@](C)(O)[C@H](O)[C@@H](C)C(=O)[C@H](C)C[C@@]2(C)O)O[C@H](C)C[C@@H]1N(C)C` [ERYTHROMYCIN PROPIONATE], the IC50 result (in assay [1]; at Mu-type opioid receptor; on Acetylcholinesterase; in assay [2]; in assay [3]; in assay [4]) was “Not Active” throughout. The IC50 entry on Substance-P receptor is reported as “Not Active”.
Regarding `C=C(CC)C(=O)c1ccc(OCC(=O)O)c(Cl)c1Cl` [ETHACRYNIC ACID], the IC50 result (in assay [1]; on Mu-type opioid receptor; against Acetylcholinesterase; in assay [2]; in assay [3]; in assay [4]) was “Not Active” each time. For the same compound, the IC50 entry on Substance-P receptor is “Not Active”.
As for `C#C[C@]1(O)CC[C@H]2[C@@H]3CCc4cc(O)ccc4[C@H]3CC[C@@]21C` [ETHINYL ESTRADIOL], the IC50 entry (in assay [1]; against Acetylcholinesterase; in assay [2]; in assay [3]; on Substance-P receptor) was “Not Active” in each case. The pKi at Mu-type opioid receptor was 4.96; in assay [4] it was 5.88. The pIC50 was 4.57 on Mu-type opioid receptor (read-out: IC50) and 5.10 in assay [4].
Regarding `OCCO` [ETHYLENE GLYCOL], the IC50 entry (in assay [1]; at Mu-type opioid receptor; against Acetylcholinesterase; in assay [2]; in assay [3]; in assay [4]) was “Not Active” throughout. Besides, at Substance-P receptor, the IC50 entry is recorded as “Not Active”.
For the compound `CC(=O)OCC(CCn1cnc2cnc(N)nc21)COC(C)=O` [FAMCICLOVIR], the IC50 result (in assay [1]; at Mu-type opioid receptor; at Acetylcholinesterase; in assay [2]; in assay [3]; in assay [4]) was “Not Active” throughout. Moreover, at Substance-P receptor, the IC50 result is given as “Not Active”.
As for `O=C(O)Cc1ccc(-c2ccccc2)cc1` [FELBINAC], the IC50 result (in assay [1]; on Mu-type opioid receptor; at Acetylcholinesterase; in assay [2]; in assay [3]; in assay [4]) was “Not Active” in each case. Besides, on Substance-P receptor, the IC50 result was “Not Active”.
As to `CCOC(=O)C1=C(C)NC(C)=C(C(=O)OC)C1c1cccc(Cl)c1Cl` (configuration not stated) [FELODIPINE], the IC50 entry (in assay [1]; on Mu-type opioid receptor; on Acetylcholinesterase; in assay [2]; in assay [3]; in assay [4]) was “Not Active” each time. Moreover, the IC50 entry against Substance-P receptor is recorded as “Not Active”.
With `CC(C(=O)O)c1ccc(-c2ccccc2)c(F)c1` (configuration not stated) [FLURBIPROFEN], the IC50 entry (in assay [1]; on Mu-type opioid receptor; at Acetylcholinesterase; in assay [2]; in assay [3]; in assay [4]) was “Not Active” each time. Further, the IC50 entry against Substance-P receptor is reported as “Not Active”.
In the case of `Cc1cn[nH]c1` [FOMEPIZOLE], the IC50 entry (in assay [1]; at Mu-type opioid receptor; on Acetylcholinesterase; in assay [2]; in assay [3]; in assay [4]) was “Not Active” throughout. Also, the IC50 entry against Substance-P receptor is given as “Not Active”.
In the case of `NC[C@@H]1O[C@H](O[C@H]2[C@@H](O)[C@H](O[C@@H]3[C@@H](O)[C@H](N)C[C@H](N)[C@H]3O[C@H]3O[C@H](CN)[C@@H](O)[C@H](O)[C@H]3N)O[C@@H]2CO)[C@H](N)[C@@H](O)[C@@H]1O` [FRAMYCETIN], the IC50 entry (in assay [1]; on Mu-type opioid receptor; at Acetylcholinesterase; in assay [2]; in assay [3]; in assay [4]) was “Not Active” throughout. In addition, the IC50 entry at Substance-P receptor is listed as “Not Active”.
With `C[C@H]([C@](O)(Cn1cncn1)c1ccc(F)cc1F)S(C)(=O)=O` [GENACONAZOLE], the IC50 entry (in assay [1]; on Mu-type opioid receptor; on Acetylcholinesterase; in assay [2]; in assay [3]; in assay [4]) was “Not Active” in each case. For the same compound, on Substance-P receptor, the IC50 entry is given as “Not Active”.
Consider `Cc1cnc(C(=O)NCCc2ccc(S(=O)(=O)NC(=O)NC3CCCCC3)cc2)cn1` [GLIPIZIDE], for which the IC50 result (in assay [1]; at Mu-type opioid receptor; against Acetylcholinesterase; in assay [2]; in assay [3]; in assay [4]) was “Not Active” each time. Moreover, the IC50 result against Substance-P receptor is on record as “Not Active”.
`Cc1c(F)c(N2CCNC(C)C2)cc2c1c(=O)c(C(=O)O)cn2C1CC1` (configuration not stated) [GREPAFLOXACIN]: the IC50 entry (in assay [1]; on Mu-type opioid receptor; against Acetylcholinesterase; in assay [2]; in assay [3]; in assay [4]) was “Not Active” each time. In addition, the IC50 result at Substance-P receptor is on record as “Not Active”.
As to `COc1ccccc1OCC(O)CO` (configuration not stated) [GUAIFENESIN], the IC50 result (in assay [1]; on Mu-type opioid receptor; at Acetylcholinesterase; in assay [2]; in assay [3]; in assay [4]) was “Not Active” in each case. Besides, at Substance-P receptor, the IC50 result was “Not Active”.
In the case of `N=C(N)N/N=C/c1c(Cl)cccc1Cl` [GUANABENZ], the IC50 result (in assay [1]; on Mu-type opioid receptor; at Acetylcholinesterase; in assay [2]; in assay [3]; in assay [4]) was “Not Active” each time. For the same compound, the IC50 entry against Substance-P receptor is “Not Active”.
For the compound `C[C@]12CCC(=O)C=C1CC[C@@H]1[C@@H]2[C@@H](O)C[C@@]2(C)[C@H]1CC[C@]2(O)C(=O)CO` [HYDROCORTISONE], the IC50 result (in assay [1]; at Mu-type opioid receptor; at Acetylcholinesterase; in assay [2]; in assay [3]; in assay [4]) was “Not Active” throughout. Also, the IC50 entry against Substance-P receptor is “Not Active”.
Take `C/C=C\c1ccc(O)c(OC)c1` [ISOEUGENOL]: the IC50 result (in assay [1]; at Mu-type opioid receptor; on Acetylcholinesterase; in assay [2]; in assay [3]; in assay [4]) was “Not Active” each time. In addition, the IC50 result against Substance-P receptor was “Not Active”.
On to `NC[C@H]1O[C@H](O[C@H]2[C@H](O)[C@@H](O[C@H]3O[C@H](CO)[C@@H](O)[C@H](N)[C@H]3O)[C@H](N)C[C@@H]2N)[C@H](O)[C@@H](O)[C@@H]1O` [KANAMYCIN], for which the IC50 entry (in assay [1]; on Mu-type opioid receptor; against Acetylcholinesterase; in assay [2]; in assay [3]; in assay [4]) was “Not Active” each time. Besides, at Substance-P receptor, the IC50 result is given as “Not Active”.

The term pIC50 denotes the negative decadic logarithm of the IC50, by convention in mol/L. What is called pKi is the negative decadic logarithm of the Ki, by convention in mol/L.
